Laboratory results published in paper PMC5834442, “Identifying inhibitors of the Leishmania inositol phosphorylceramide synthase with antiprotozoal activity using a yeast-based assay and ultra-high throughput screening platform” (Scientific Reports, 2018).

What follows are molecules tested on L. donovani (MHOM/SD/62/1S-CL2D, LdBOB) axenic amastigotes (assay: Leishmania donovani axenic amastigote dose response assay (resazurin)). Conditions: -logIC50 mol against L. donovani (LdBOB) axenic amastigotes, read-out: pIC50 Axenic (converted).
Type: cell-based

SMILES	IC50 [µM]
O=C1CC(c2ccccc2)N(c2ccc(Cl)cc2)N1 (stereo not drawn) [0014C 75***]	26.9
Cc1cccc(Nc2cccc3c(=O)[nH][nH]c(=O)c23)c1C [78/118]	> 50
CCOc1cc2c(cc1S(=O)(=O)c1ccc(COc3ccc(F)cc3)cc1)CCN(C)CC2 [AL101938-139A1]	31.6
O=C(NC1CCN(S(=O)(=O)c2ccc(O[C@@H]3CCNC3)cc2)CC1)c1ccc(Cl)c(Cl)c1 [AS45234-005A4B2C1D4]	> 50
Cc1ncccc1Oc1ncc(Cl)cc1S(=O)(=O)Nc1cc(Cl)ccc1F [AV207107-102A1]	12.6
COc1cc2c(cc1S(=O)(=O)c1ccc(COc3cccc(F)c3)cc1)CCN(C)CC2 [DC101675-085A1]	> 50
O=S(=O)(Nc1ccccc1C(F)(F)F)c1ccc(-c2cccs2)s1 [DJ107456-053A67]	14.8
Cc1cnc(NS(=O)(=O)c2ccc(-c3ccc(F)cc3)s2)c(Br)c1 [DJ107456-057A22]	28.2
O=S(=O)(Nc1c(F)cccc1C(F)(F)F)c1ccc(-c2ccccc2F)s1 [DJ107456-080A211]	26.9
COc1ccc(-c2ccc(S(=O)(=O)Nc3ncc(Cl)cc3Cl)s2)cc1 [DJ107456-088A34]	27.5
O=S(=O)(Nc1ccccc1CN1CCC(F)(F)C1)c1ccc(Cl)c(Cl)c1 [DS105792-004A16B1]	22.4
O=S(=O)(Nc1cccc(F)c1CNCc1ccco1)c1ccc(Cl)c(Cl)c1 [DS105792-055A6B42]	19.5
O=S(=O)(Nc1cccc(F)c1CNCc1ccco1)c1ccccc1Cl [DS105792-055A7B42]	32.4
CN1CCC(Oc2cccc(C(=O)N3CCC(CNS(=O)(=O)c4cccc(F)c4)CC3)c2)CC1 [DS205504-126A32B5C8]	> 50
CN1CC[C@@H](Oc2cc(CNC(=O)c3ccc(Br)cc3)ccc2Cl)C1 [DZ203929-138A2]	> 50
Nc1nonc1-c1nc2c(-c3cccc(F)c3)nccc2n1C1CCNCC1 [IS203450-048A1]	40.7
CC(C(O)(Cn1cncn1)c1ccc(F)cc1F)S(C)(=O)=O (stereo not drawn) [JCH/31/2]	> 50
OC(CCC1CCCCC1)(Cn1ccnc1)c1ccc(F)cc1F (stereo not drawn) [JJP/1777/3]	14.1
OC(Cn1cncn1)(c1ccc(F)cc1F)C1CCCS1 (stereo not drawn) [JJP/1818/3]	> 50
Fc1ccc(-c2nc(-c3cccs3)[nH]c2-c2ccncc2)cc1 [JMS-15898-298-1]	20.9
Nc1ccc(Br)cc1-c1nc(N)c2cc(Br)ccc2n1 [N4309-86-B1]	> 50
Cc1cc(Cl)ccc1NC(=O)COc1ccccc1NS(=O)(=O)c1cccs1 [N6862-82-1]	20
Cc1ccccc1NC(=O)COc1ccccc1NS(=O)(=O)c1cccs1 [N6862-82-2]	> 50
O=C(NC1=NN(c2ccc(Cl)c(Cl)c2)CC1)c1ncccn1 [N7030-10-104]	> 50

SMILES	IC50 [µM]
Cc1cc(Cl)ccc1NC(=O)CN(c1ccccc1C(=O)O)S(=O)(=O)c1cccs1 [N9272-3-4]	> 50
Cc1c(-c2noc(-c3ccc(OC(C)C)c(Cl)c3)n2)ccc2c1CCNC2 [N11266-30-A1]	22.4
O=C(NC1=NN(c2ccc(Cl)c(Cl)c2)CC1)c1ccncc1 [N11828-23-3]	> 50
O=C1CCc2cc(-c3csc(-c4cccnc4)n3)ccc2N1 [R9196/29/59]	> 50
O=S(=O)(Nc1cc(Cl)ccc1O)c1ccc(Cl)c(Cl)c1 [R10040/200/6]	12
CCn1ncc2c(N[C@H]3CCCC[C@H]3C(=O)O)c(C(=O)NCc3ccccc3)cnc21 [R10565/35/4]	> 50
CN1CCN(c2ccc3ncc(-c4cccc(NC(=O)Cc5cccs5)c4)n3n2)CC1 [R11466/151/4]	> 50
O[C@@](Cn1cncn1)(c1ccc(F)cc1F)C1CCOCC1 [RB/854/3]	> 50
O=C(NCc1cccs1)c1sccc1NS(=O)(=O)c1ccccc1 [RF44798-098A21]	12.3
O=C(NCc1ccccc1)c1sccc1NS(=O)(=O)c1ccccc1 [RF44798-098A22]	21.4
O=c1cc(-c2ccccc2O)oc2ccccc12 [SC/32543]	> 50
Nc1ccc(S(=O)(=O)Nc2ccccc2Oc2ccc(Cl)cc2Cl)cc1 [SC/79553]	10.5
c1ccc(N2CCN(c3ncc(-c4cccs4)cn3)CC2)nc1 [SC/89927]	> 50
CC1CCc2c(sc(NC(=O)c3cccs3)c2C#N)C1 (stereo not drawn) [SC/95708]	> 50
O=C(Nc1c(Br)c(C2CC2)nn1-c1ccccc1)C(Cl)(Cl)Cl [SC/96415]	20.4
O=S(=O)(Nc1cccc2nsnc12)c1cccs1 [SC/96769]	24.5
CCc1cccc(NC(=O)Nc2cc(F)ccc2F)c1 [SC/109224]	15.1
COc1ccc(Cl)cc1NC(=O)Nc1cccc(F)c1 [SC/109667]	11.5
O=C(NNC(=O)c1c(O)c2ccccc2[nH]c1=O)c1ccc(Cl)cc1Cl [SC/110880]	> 50
Cc1ccc(-c2nc3ccccc3[nH]2)cc1NC(=O)c1cc2ccccc2o1 [ST48766-047X8]	11.7
O=C(c1cccs1)c1conc1C(=O)c1ccc(Br)cc1 [ST/261533]	> 50
COc1ccc(C(=O)c2nocc2C(=O)c2ccc(Cl)cc2)cc1 [ST/261550]	44.7
O=C(Nc1nnc(COc2ccc(F)cc2)s1)c1cnccn1 [ST/389620]	33.1
FC(F)(F)c1ccc(Nc2nc(-c3ccncc3)cs2)cc1 [ST/510927]	27.5

SMILES	IC50 [µM]
N#Cc1ccc(Cn2cc(C(=O)c3cccs3)c3ccccc32)cc1 [ST/516872]	14.8
Cc1oc2cc(O)ccc2c(=O)c1-c1nc2ccccc2s1 [ST/517902]	> 50
Nc1ccc(-c2nc3cc(Cl)cc(Cl)c3o2)cc1 [ST/525525]	49
COc1ccc(S(=O)(=O)Nc2ccccc2C(F)(F)F)c(Cl)c1Cl [ST/534228]	19.5
CNc1nc(N)c([N+](=O)[O-])c(Nc2cccc(Cl)c2)n1 [ST/537896]	19.5
Cc1ccc2cc(C(=O)Nc3ccc(C)c(N)c3)sc2c1 [ST/551412]	20.4
CCOc1cccc(C(=O)Nc2cc(-c3nc4ccccc4[nH]3)ccc2C)c1 [ST/591387]	15.8
O=C(c1ccccc1)N1C(=O)C(c2ccccc2)Oc2ccccc21 (stereo not drawn) [ST/629481]	24.5
O=S(=O)(Nc1ccccc1Br)c1ccc(Cl)c(C(F)(F)F)c1 [ST/630987]	19.1
O=C(Nc1ccc(OC(F)(F)F)cc1)c1ccc(Br)s1 [ST/631944]	13.2
CC(c1ccccc1)N1Cc2cccc(C(=O)O)c2C1=O (stereo not drawn) [ST/641236]	> 50
N#Cc1ccc(NC(=O)c2cccs2)cc1C#N [ST/646239]	20.9
CCOc1nc2ccccc2nc1NS(=O)(=O)c1ccccc1 [ST/646349]	22.9
O=C(NCCc1ccccc1)c1ccccc1NS(=O)(=O)c1cccs1 [ST/648091]	18.6
O=C(NCc1ccco1)c1ccccc1NS(=O)(=O)c1cccs1 [ST/662660]	20.4
O=S(=O)(Nc1cccc2nsnc12)c1ccccc1 [ST/663705]	39.8
CN(C)CCNc1ccc2ncc(-c3ccc4ccccc4c3)n2n1 [ST/668081]	> 50
Cc1ccnc2nc(C(=O)N3CCCSC3=Nc3cccc(C(F)(F)F)c3)nn12 [ST/682329]	31.6
O=C(O)c1cccc2c1C(=O)N(Cc1ccccc1F)C2 [ST/689197]	> 50
CCOc1ccc2[nH]c(=O)c(CN(Cc3cccnc3)C(=O)Nc3ccc(F)cc3)cc2c1 [ST/696972]	> 50
COc1ccc(S(=O)(=O)Nc2cc(Cl)ccc2C)c(C)c1C [ST/724177]	19.1
O=C(c1ccco1)c1cn(Cc2ccc(F)cc2)c2ccccc12 [ST/727705]	28.8
CCN(C(=O)Cc1c(C(=O)O)[nH]c2ccccc12)c1cc(C)ccc1C [ST/728445]	18.2
O=C(Nc1cccc(C(F)(F)F)c1)c1cc(-c2cccc(O)c2)on1 [ST/728737]	> 50

SMILES	IC50 [µM]
O=C(Nc1cccc(Cl)c1)Nc1ccc2snnc2c1 [ST/736217]	13.5
Cc1ccc2[nH]c(COc3ccc(Cl)cc3)nc2c1 [ST/743143]	29.5
O=C(Nc1ccccc1C(=O)NCc1ccc(Cl)cc1)c1ccco1 [ST/771851]	> 50
O=C(Nc1nnc(C(F)(F)F)s1)c1ccc(Br)s1 [ST/782334]	11.7
O=C(Nc1oc2ccc(Cl)cc2c(=O)c1-c1ccc(Br)cc1)c1ccco1 [ST/802162]	25.1
COc1cccc2[nH]c(C(=O)Nc3cccc(Cl)c3)cc12 [ST/803957]	12.3
COc1ccc2cc(C(=O)Nc3ccc(F)c(Cl)c3)[nH]c2c1 [ST/803999]	11.2
Cc1cc(C(=O)N(C2=NC(C)CS2)c2ccc(Cl)cc2)no1 (stereo not drawn) [ST/807832]	> 50
CC1CSC(N(C(=O)Cn2cnnn2)c2ccc(Cl)cc2)=N1 (stereo not drawn) [ST/811532]	> 50
CC1CSC(N(C(=O)CN2CSCC2=O)c2ccc(Cl)cc2)=N1 (stereo not drawn) [ST/812474]	> 50
CC1CSC(N(C(=O)Cc2cccs2)c2ccc(Cl)cc2)=N1 (stereo not drawn) [ST/815117]	33.9
CC1CSC(N(C(=O)CCc2ccco2)c2ccc(Cl)cc2)=N1 (stereo not drawn) [ST/816400]	21.9
Cn1c(=O)c(Oc2ccc(Cl)cc2)c(O)c2ccccc21 [ST/832324]	> 50
Cc1cc(C)n2nc(S(=O)(=O)Nc3c(Cl)cccc3Cl)nc2n1 [ST/833860]	41.7
Cc1cc(O)c(Cl)c(C)c1NS(=O)(=O)c1ccc(Br)cc1 [ST/835722]	26.9
Brc1ccc(OCc2nc3ccccc3[nH]2)cc1 [ST/839801]	49
CSc1ccccc1NS(=O)(=O)c1cccs1 [ST/867134]	> 50
Cc1ccc(O)c(NC(=O)c2cccc(Br)c2)c1 [ST/867278]	21.9
O=C(Nc1cc(Cl)c(O)c(Cl)c1)c1ccc(Br)cc1 [ST/869684]	17.8
Cc1cc(-c2nc3cc(Cl)ccc3o2)ccc1N [ST/880430]	26.9
C=CCNc1nc(N)c([N+](=O)[O-])c(Nc2cccc(F)c2)n1 [ST/892571]	> 50
CSc1nsc(NC(=O)Nc2ccc(Cl)cc2)n1 [ST/905433]	30.2
O=S(=O)(Nc1cccc(Cl)c1Cl)c1cccs1 [ST/906545]	21.4
CCOc1cc(S(=O)(=O)N2CCN(Cc3ccc4c(c3)OCO4)CC2)ccc1Br [ST/910382]	21.4
